# Assay results reported in patent US10314820B2, “Imidazole-based heterocyclic compounds” (priority 2014, dated 2019).
# Columns and labels:
# Assay type in all cases: cell-based
# [1] = system: Human keratinocytes (HaCaT cells); assay: Human cytotoxicity assay in vitro (CellTiter-Glo), keratinocytes; settings: keratinocyte cytotoxicity score; 24 h exposure
# [2] = system: Human hepatocytes (HepaRG cells); assay: Human cytotoxicity assay in vitro (CellTiter-Glo), hepatocytes; settings: hepatocyte cytotoxicity score; 24 h exposure
# [3] = system: linezolid-resistant Staphylococcus aureus (from MRSA, COL); assay: microbe, parasite or virus in culture; settings: Staphylococcus aureus, MRSA, read-out: MIC for the resistant strain
# [4] = system: vancomycin-resistant Staphylococcus aureus (from MRSA, COL); assay: microbe, parasite or virus in culture; settings: Staphylococcus aureus, MRSA, read-out: MIC for the resistant strain
SMILES,cytotoxicity cell line K [1],cytotoxicity cell line H [2],MIC [3] [µg/mL],MIC [4] [µg/mL]
Cc1[nH]c(-c2ccc(-c3ccc(Cl)cc3)s2)nc1-c1ccccc1 [Compound 6],0 (compounds not causing loss of cell viability at concentrations of 50 μM or higher),0 (compounds without signs of cell viability loss at concentrations of 50 μM or higher),–,–
Cc1[nH]c(-c2ccc(-c3ccc(F)cc3)s2)nc1-c1ccccc1 [Compound 7],2 (compounds causing>50% inhibition of cell viability at 25 μM),1 (compounds not causing a loss of viability at concentrations between 25 and 50 μM),–,–
Cc1[nH]c(-c2cc(C)n(-c3ccc(Cl)cc3)c2C)nc1-c1ccccc1 [Compound 8],1 (compounds causing less than 50% inhibition of cell viability at 50 μM),2,–,–
Cc1[nH]c(-c2cc(C)n(-c3ccc(F)cc3F)c2C)nc1-c1ccccc1 [Compound 9],2 (compounds causing>50% inhibition of cell viability at 25 μM),3,–,–
Cc1[nH]c(-c2cc(C)n(-c3ccc(F)c(F)c3F)c2C)nc1-c1ccccc1 [Compound 10],2 (compounds causing>50% inhibition of cell viability at 25 μM),3,–,–
Cc1[nH]c(-c2csc(-c3ccc(F)cc3)n2)nc1-c1ccccc1 [Compound 11],2 (compounds causing>50% inhibition of cell viability at 25 μM),1 (compounds not causing a loss of viability at concentrations between 25 and 50 μM),–,–
Cc1[nH]c(-c2ccc(-c3cccc(Cl)c3)s2)nc1-c1ccccc1 [Compound 12],2 (compounds causing>50% inhibition of cell viability at 25 μM),1 (compounds not causing a loss of viability at concentrations between 25 and 50 μM),–,–
Cc1[nH]c(-c2ccc(-c3cccc(Br)c3)s2)nc1-c1ccccc1 [Compound 13],1 (compounds causing less than 50% inhibition of cell viability at 50 μM),1 (compounds not causing a loss of viability at concentrations between 25 and 50 μM),–,–
Cc1[nH]c(-c2csc(-c3cccc(Br)c3)n2)nc1-c1ccccc1 [Compound 14],1 (compounds causing less than 50% inhibition of cell viability at 50 μM),1 (compounds not causing a loss of viability at concentrations between 25 and 50 μM),–,–
Cc1nc(-c2ccc(-c3ccc(Cl)cc3Cl)o2)[nH]c1-c1ccc(F)cc1 [Compound 16],1 (compounds causing less than 50% inhibition of cell viability at 50 μM),3,–,–
Cc1nc(-c2ccc(-c3ccccc3C(F)(F)F)o2)[nH]c1-c1ccccc1Cl [Compound 20],0 (compounds not causing loss of cell viability at concentrations of 50 μM or higher),3,–,–
Cc1nc(-c2ccc(-c3ccccc3OC(F)(F)F)o2)[nH]c1-c1cccc(Cl)c1 [Compound 21],2 (compounds causing>50% inhibition of cell viability at 25 μM),3,–,–
Cc1[nH]c(-c2ccc(-c3ccccc3C(F)(F)F)o2)nc1-c1cccc(Cl)c1 [Compound 22],2 (compounds causing>50% inhibition of cell viability at 25 μM),–,–,–
Cc1[nH]c(-c2ccc(-c3ccccc3C(F)(F)F)o2)nc1-c1ccc(Br)cc1 [Compound 25],0 (compounds not causing loss of cell viability at concentrations of 50 μM or higher),0 (compounds without signs of cell viability loss at concentrations of 50 μM or higher),–,–
Cc1[nH]c(-c2ccc(-c3ccccc3OC(F)(F)F)o2)nc1-c1ccc(C(F)(F)F)cc1 [Compound 26],0 (compounds not causing loss of cell viability at concentrations of 50 μM or higher),1 (compounds not causing a loss of viability at concentrations between 25 and 50 μM),–,–
C#Cc1ccc(-c2nc(-c3ccc(-c4ccccc4C(F)(F)F)o3)[nH]c2C)cc1 [Compound 27],2 (compounds causing>50% inhibition of cell viability at 25 μM),1 (compounds not causing a loss of viability at concentrations between 25 and 50 μM),–,–
CCc1ccc(-c2[nH]c(-c3ccc(-c4ccccc4C(F)(F)F)o3)nc2C)cc1 [Compound 28],0 (compounds not causing loss of cell viability at concentrations of 50 μM or higher),1 (compounds not causing a loss of viability at concentrations between 25 and 50 μM),–,–
"Cc1[nH]c(-c2ccc(-c3ccccc3OC(F)(F)F)o2)nc1Cc1ccc(Br)cc1 [Compound 30, 4-(4-Bromo-benzyl)-5-methyl-2-[5-(2-trifluoromethoxy-phenyl)-furan-2-yl]-1H-imidazole]",3 (compounds causing more than 50% inhibition of cell viability at 10 μM),3,–,–
Cc1[nH]c(-c2ccn(-c3ccccc3C(F)(F)F)c2)nc1-c1ccccc1 [Compound 33],3 (compounds causing more than 50% inhibition of cell viability at 10 μM),–,–,–
Cc1[nH]c(-c2cc(C)n(-c3cccc(C(F)(F)F)c3)c2C)nc1-c1ccccc1 [Compound 36],2 (compounds causing>50% inhibition of cell viability at 25 μM),3,–,–

SMILES,cytotoxicity cell line K [1],cytotoxicity cell line H [2],MIC [3] [µg/mL],MIC [4] [µg/mL]
Cc1nc(-c2ccc(-c3cccc(OC(F)(F)F)c3)o2)[nH]c1-c1ccc(F)cc1 [Compound 37],2 (compounds causing>50% inhibition of cell viability at 25 μM),3,–,–
Cc1[nH]c(-c2ccc(-c3cccc(C(F)(F)F)c3)o2)nc1-c1ccc(F)cc1 [Compound 38],2 (compounds causing>50% inhibition of cell viability at 25 μM),1 (compounds not causing a loss of viability at concentrations between 25 and 50 μM),–,–
Cc1nc(-c2ccc(-c3ccc(Cl)c(OC(F)(F)F)c3)o2)[nH]c1-c1ccc(F)cc1 [Compound 43],–,3,–,–
Cc1[nH]c(-c2ccc(-c3ccc(C(F)(F)F)cc3)s2)nc1-c1ccccc1 [Compound 46],1 (compounds causing less than 50% inhibition of cell viability at 50 μM),1 (compounds not causing a loss of viability at concentrations between 25 and 50 μM),–,–
Cc1[nH]c(-c2ccc(-c3ccc(OC(F)(F)F)cc3)o2)nc1-c1ccc(Cl)cc1 [Compound 48],1 (compounds causing less than 50% inhibition of cell viability at 50 μM),2,–,–
Cc1[nH]c(-c2ccc(-c3ccc(OC(F)(F)F)cc3Cl)o2)nc1-c1ccc(F)cc1 [Compound 51],3 (compounds causing more than 50% inhibition of cell viability at 10 μM),3,–,–
Cc1ccc(-c2ccc(-c3nc(-c4ccccc4)c(C)[nH]3)s2)cc1 [Compound 54],1 (compounds causing less than 50% inhibition of cell viability at 50 μM),1 (compounds not causing a loss of viability at concentrations between 25 and 50 μM),–,–
Cc1ccc(-c2ncc(-c3nc(-c4ccccc4)c(C)[nH]3)s2)cc1 [Compound 55],–,1 (compounds not causing a loss of viability at concentrations between 25 and 50 μM),–,–
Cc1ccc(-c2nc(-c3nc(-c4ccccc4)c(C)[nH]3)cs2)cc1 [Compound 56],3 (compounds causing more than 50% inhibition of cell viability at 10 μM),1 (compounds not causing a loss of viability at concentrations between 25 and 50 μM),–,–
Cc1ccc(-c2nc(-c3nc(-c4ccccc4)c(C)[nH]3)co2)cc1 [Compound 57],3 (compounds causing more than 50% inhibition of cell viability at 10 μM),1 (compounds not causing a loss of viability at concentrations between 25 and 50 μM),–,–
Cc1[nH]c(-c2cc(C)n(-c3ccc(C(C)C)cc3)c2C)nc1-c1ccccc1 [Compound 58],2 (compounds causing>50% inhibition of cell viability at 25 μM),3,–,–
Cc1[nH]c(-c2cc(C)n(-c3ccc4c(c3)CCC4)c2C)nc1-c1ccccc1 [Compound 59],2 (compounds causing>50% inhibition of cell viability at 25 μM),2,–,–
FC(F)(F)Oc1ccccc1-c1ccc(-c2ncc(-c3ccccc3)[nH]2)o1 [Compound 63],–,2,–,–
FC(F)(F)c1ccccc1-c1ccc(-c2nc(Cl)c(-c3ccccc3)[nH]2)o1 [Compound 65],–,2,–,–
FC(F)(F)Oc1ccccc1-c1ccc(-c2nc(-c3ccccc3Cl)c[nH]2)o1 [Compound 67],2 (compounds causing>50% inhibition of cell viability at 25 μM),2,–,–
FC(F)(F)Oc1ccccc1-c1ccc(-c2nc(-c3ccc(Cl)cc3Cl)c[nH]2)o1 [Compound 68],2 (compounds causing>50% inhibition of cell viability at 25 μM),2,–,–
Cc1[nH]c(-c2coc(-c3ccccc3C(F)(F)F)c2)nc1-c1ccccc1 [Compound 72],2 (compounds causing>50% inhibition of cell viability at 25 μM),3,–,–
Cc1[nH]c(-c2ccc(-c3ccccc3)s2)nc1-c1ccccc1 [Compound 74],3 (compounds causing more than 50% inhibition of cell viability at 10 μM),1 (compounds not causing a loss of viability at concentrations between 25 and 50 μM),–,–
"CC(=O)NC[C@H]1CN(c2ccc(N3CCOCC3)c(F)c2)C(=O)O1 [linezolid, reference compound]",–,–,7.5,–
"CN[C@H](CC(C)C)C(=O)N[C@H]1C(=O)N[C@@H](CC(N)=O)C(=O)N[C@H]2C(=O)N[C@H]3C(=O)N[C@H](C(=O)N[C@H](C(=O)O)c4cc(O)cc(O)c4-c4cc3ccc4O)[C@H](O)c3ccc(c(Cl)c3)Oc3cc2cc(c3O[C@@H]2O[C@H](CO)[C@@H](O)[C@H](O)[C@H]2O[C@H]2C[C@](C)(N)[C@H](O)[C@H](C)O2)Oc2ccc(cc2Cl)[C@H]1O [vancomycin, Vancomycin, reference compound]",–,–,–,20
